In patent US4529720A, “Antibiotic from Streptomyces clavulicerus” (Beecham Group, p.l.c., priority 1974, dated 1985):
Where a name gives a salt, the structure may show the parent alone.

Tests used:
Staphylococcus aureus = experiment: Antibacterial synergism, microtitre MIC (Example 42); type: cell-based; settings: Table 6
[1] = system: Staphylococcus aureus (Russell); experiment: as above; type: cell-based
Stability in human blood = type: in vitro ADME
Klebsiella aerogenes A [2] = experiment: Growth inhibition, alone and combined (description); type: cell-based; settings: 5 μg/ml of clavulanic acid also present
[3] = system: Klebsiella aerogenes E 70; experiment: Antibacterial synergism, microtitre MIC (Example 42); type: cell-based; settings: Table 8; method of Example 42
Klebsiella aerogenes A [4] = experiment: as above; type: cell-based; settings: Table 8; method of Example 42
Klebsiella aerogenes 62 = experiment: as above; type: cell-based; settings: Table 8; method of Example 42
bacteria = experiment: Tests for antibacterial activity in broth (Example 32); type: cell-based; settings: against bacteria resistant to these antibiotics
[5] = Hydrolysis of methyl ester in pH 7 phosphate buffer; type: physicochemical; settings: 1 mg/ml, 37° C., 0.05M phosphate buffer pH 7, followed over 2 hours
Description: The reaction was followed by paper chromatography (bioautographic system). Using the butanol/ethanol/water system to follow the reaction over a period of 2 hours the zone of the methyl ester at Rf 0.79 decreased in size as the zone of clavulanic acid at Rf 0.12 increased.

O=C(O)[C@H]1/C(=C/CO)O[C@@H]2CC(=O)N21 [clavulanic acid sodium salt, 3-(β-hydroxyethylidine)-7-oxo-4-oxa-1-azabicyclo[3,2,0]heptane-2-carboxylic acid sodium salt]
Minimum Inhibitory Concentrations (Staphylococcus aureus; agent alone): 62 µg/mL | Minimum Inhibitory Concentrations ([1]; agent alone, Table 6): 15 µg/mL

O=C(O)[C@H]1/C(=C/CO)O[C@@H]2CC(=O)N21 [clavulanic acid, Z-(2R,5R)-3-(β-hydroxyethylidene)-7-oxo-4-oxa-1-azabicyclo[3,2,0]heptane-2-carboxylic acid]
stability in human blood (Stability in human blood): high stability in human blood

O=C(Cc1cccs1)N[C@@H]1C(=O)N2C(C(=O)[O-])=C(C[n+]3ccccc3)CS[C@H]12 [Cephaloridine, cephaloridine]
Minimum Inhibitory Concentrations, Cephaloridine in presence of 5 μg/ml clavulanic acid sodium salt (Staphylococcus aureus; in presence of 5 μg/ml clavulanic acid sodium salt): 3.7 µg/mL | Minimum Inhibitory Concentration of cephaloridine when synergist added at 1 μg/ml ([1]; clavulanic acid sodium salt at 1 μg/ml, compared with <0.03 μg/ml at 5 μg/ml, footnote of Table 6): Same value

CC1(C)S[C@@H]2[C@H](NC(=O)Cc3ccccc3)C(=O)N2[C@H]1C(=O)O [Benzylpenicillin, benzylpenicillin]
concentration of penicillin inhibiting growth when clavulanic acid is also present (Klebsiella aerogenes A [2]): less than 12.5 μg/ml

CC1(C)S[C@@H]2[C@H](NC(=O)[C@H](N)c3ccccc3)C(=O)N2[C@H]1C(=O)O [Ampicillin, ampicillin]
M.I.C., Ampicillin + 5 μg/ml of Benzyl Ester of clavulanic acid [3]: 3.9 | M.I.C., Ampicillin + 5 μg/ml of Methyl Ester of clavulanic acid [3]: 3.9 | M.I.C., Ampicillin + 5 μg/ml of Benzyl Ester of clavulanic acid (Klebsiella aerogenes A [4]): 1.9 | M.I.C., Ampicillin + 5 μg/ml of Methyl Ester of clavulanic acid (Klebsiella aerogenes A [4]): 1.9 | M.I.C., Ampicillin + 5 μg/ml of Benzyl Ester of clavulanic acid (Klebsiella aerogenes 62): 3.9 | M.I.C., Ampicillin + 5 μg/ml of Methyl Ester of clavulanic acid (Klebsiella aerogenes 62): 3.9

COC(=O)[C@H]1/C(=C/CO)O[C@@H]2CC(=O)N21 [clavulanic acid methyl ester]
antibacterial synergism in combination with ampicillin or cephaloridine (bacteria): marked antibacterial synergism | hydrolysis of the ester to clavulanic acid [5]: Slow conversion of the ester to clavulanic acid | hydrolysis of the ester to clavulanic acid ([5]; listed as methyl ester): slowly hydrolyse to clavulanic acid
